Data on 10 compounds can be found in ChEMBL document CHEMBL1201862, “PubChem BioAssay data set” (2004).

Structures are written as SMILES.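 Growth conditions: 96-well plates. Treatment: test compound, 48 hours, 5 concentrations. Analysis: linear interpolation between bracketing concentrations; unreached endpoints set to highest concentration. GI50 = concentration required for 50% inhibition of growth.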 Calls of active or inactive are those of the source. Cut-off read from the data, not from the text of the source: active = GI50 up to about 1.1 µM and inactive = higher.

Some test systems named below: SK-MEL-28; SNB-19; SW-620; KM12; MDA-MB-231; MDA-MB-435; UACC-62; DU-145; OVCAR-3; HCT-15; MCF7; U-251; UACC-257; MOLT-4; LOX IMVI; HCC 2998; NCI/ADR-RES; RPMI-8226; HOP-62; SK-MEL-2.
Holding throughout (assay): inhibition of tumour cell growth, NCI panel, 48 h

On to `N=C(N)SC(c1ccccc1)c1ccccc1`, for which the GI50 in the assay with SK-MEL-28 was 4.84 µM (inactive); in the assay on SNB-19 it was 28.1 µM (inactive); with SW-620, 16.8 µM (inactive); with KM12, 16.2 µM (inactive); with MDA-MB-231, 15.2 µM (inactive); in the assay on MDA-MB-435, 12.6 µM (inactive). The GI50 with UACC-62 is 16 µM (inactive); in the assay on DU-145 it was 12.2 µM (inactive); in the assay with OVCAR-3, 14.2 µM (inactive); in the assay on HCT-15, 16.4 µM; with MCF7 it was 15.4 µM (inactive); in the assay on U-251, 15.3 µM (inactive). In addition, the GI50 with UACC-257 was 14.2 µM (inactive); in the assay on MOLT-4 it was 15.7 µM (inactive); with LOX IMVI, 15.2 µM (inactive); in the assay with HCC 2998, 6.18 µM (inactive); with NCI/ADR-RES it was 17.2 µM (inactive); in the assay with RPMI-8226, 10.2 µM (inactive). Also, the GI50 with HOP-62 is 19.6 µM (inactive); with SK-MEL-2 it was 15 µM (inactive).
For the compound `COc1ccc(/C=N/n2c(-c3ccccc3)n[nH]c2=O)c(OC)c1`, the GI50 in the assay with SK-MEL-28 was > 100 µM (inactive); in the assay with SNB-19, 1.13 µM (inactive); with SW-620 it was > 100 µM (inactive); in the assay on KM12 it was 45.8 µM (inactive); with MDA-MB-231, 51.5 µM (inactive); in the assay on MDA-MB-435, > 100 µM (inactive). The GI50 in the assay with UACC-62 was 43.9 µM (inactive); with DU-145, > 100 µM (inactive); with OVCAR-3, 79.6 µM (inactive); in the assay on HCT-15, over 100 µM; in the assay on MCF7 it was 49.4 µM (inactive); in the assay with U-251, 40.6 µM (inactive). For the same compound, the GI50 in the assay with UACC-257 was > 100 µM (inactive); in the assay with MOLT-4, > 100 µM (inactive); in the assay on LOX IMVI, 47.4 µM (inactive); with HCC 2998, > 100 µM (inactive); in the assay on NCI/ADR-RES it was 29.2 µM (inactive); in the assay on RPMI-8226, > 100 µM (inactive). The GI50 is 29.8 µM (inactive) in the assay with HOP-62 and 48.2 µM (inactive) in the assay with SK-MEL-2.
Take `CCn1c(SCC(=O)NNC(=S)Nc2ccc(F)cc2)nc2ccccc2c1=O`: the GI50 in the assay with SK-MEL-28, with SNB-19, in the assay on SW-620, in the assay with KM12, with MDA-MB-231 and in the assay with MDA-MB-435 was > 100 µM (inactive) each time. Also, the GI50 with UACC-62 is 58.7 µM (inactive); in the assay on DU-145 it was > 100 µM (inactive); in the assay on OVCAR-3, > 100 µM (inactive); in the assay on HCT-15 it was 74.6 µM; in the assay with MCF7 it was > 100 µM (inactive); in the assay on U-251 it was > 100 µM (inactive). Further, the GI50 is > 100 µM (inactive) in the assay on UACC-257; 44.4 µM (inactive) with MOLT-4; > 100 µM (inactive) in the assay on LOX IMVI; > 100 µM (inactive) in the assay on HCC 2998; > 100 µM (inactive) in the assay with NCI/ADR-RES; 63.5 µM (inactive) in the assay on RPMI-8226. Further, the GI50 in the assay on HOP-62 and with SK-MEL-2 was > 100 µM (inactive) throughout.
Turning to `O=C1c2cc(Cl)ccc2N=C(NCCCl)C2CSCN12` (stereo not given), the GI50 in the assay on SK-MEL-28, in the assay with SNB-19, in the assay with SW-620, in the assay on KM12, in the assay on MDA-MB-231 and in the assay on MDA-MB-435 was > 100 µM (inactive) in each case. Further, the GI50 in the assay with UACC-62 was > 100 µM (inactive); with DU-145, > 100 µM (inactive); with OVCAR-3, > 100 µM (inactive); in the assay with HCT-15, over 100 µM; in the assay with MCF7, > 100 µM (inactive); with U-251 it was > 100 µM (inactive). The GI50 with UACC-257, with MOLT-4, with LOX IMVI, in the assay on HCC 2998, in the assay with NCI/ADR-RES and in the assay with RPMI-8226 was > 100 µM (inactive) in each case. The GI50 with HOP-62 and in the assay with SK-MEL-2 was > 100 µM (inactive) throughout.
`CC1=NOC2(C1)C(=O)Nc1ccccc12` (stereo not given): the GI50 was > 100 µM (inactive) in the assay with SK-MEL-28; 40.6 µM (inactive) in the assay with SNB-19; 24.4 µM (inactive) in the assay on SW-620; > 100 µM (inactive) in the assay with KM12; > 100 µM (inactive) with MDA-MB-231; > 100 µM (inactive) in the assay with MDA-MB-435. Besides, the GI50 in the assay with UACC-62 is > 100 µM (inactive); with DU-145 it was > 100 µM (inactive); with OVCAR-3, > 100 µM (inactive); with HCT-15, over 100 µM; with MCF7 it was 9.79 µM (inactive); in the assay on U-251, > 100 µM (inactive). In addition, the GI50 in the assay on UACC-257 was > 100 µM (inactive); in the assay on MOLT-4, > 100 µM (inactive); in the assay with LOX IMVI it was > 100 µM (inactive); with HCC 2998, > 100 µM (inactive); with NCI/ADR-RES it was 44.5 µM (inactive); with RPMI-8226, > 100 µM (inactive). For the same compound, the GI50 in the assay on HOP-62 and in the assay with SK-MEL-2 was > 100 µM (inactive) in each case.
Regarding `O=c1c2cccnc2[nH]c2ccc3scnc3c12`, the GI50 with SK-MEL-28 is > 10 µM (inactive); in the assay on SNB-19 it was > 10 µM (inactive); in the assay on SW-620, > 10 µM (inactive); in the assay on KM12, 6.7 µM (inactive); with MDA-MB-231 it was > 10 µM (inactive); in the assay with MDA-MB-435 it was 9.82 µM (inactive). In addition, the GI50 in the assay with UACC-62 is > 10 µM (inactive); with DU-145, > 10 µM (inactive); in the assay with OVCAR-3, 4.28 µM (inactive); with HCT-15 it was 4.92 µM; in the assay on MCF7, > 10 µM (inactive); with U-251 it was > 10 µM (inactive). Besides, the GI50 in the assay with UACC-257 was > 10 µM (inactive); with MOLT-4 it was 4.34 µM (inactive); with LOX IMVI, 3.36 µM (inactive); with HCC 2998, > 10 µM (inactive); with NCI/ADR-RES, 8.91 µM (inactive); in the assay with RPMI-8226, > 10 µM (inactive). In addition, the GI50 with HOP-62 and with SK-MEL-2 was > 10 µM (inactive) in each case.
On to `C[C@]12CC[C@@H]3c4ccc(OC(=O)c5ccccc5)cc4CC[C@H]3[C@@H]1CCC2OC(=O)c1cccc2c(=O)c3ccccc3[nH]c12` (stereo not given in full), for which the GI50 in the assay with SK-MEL-28 was 15.8 µM (inactive); with SNB-19, 27.4 µM (inactive); in the assay with SW-620, 12.1 µM (inactive); in the assay on KM12 it was 15.4 µM (inactive); in the assay on MDA-MB-231, 20.8 µM (inactive); in the assay on MDA-MB-435, 3.77 µM (inactive). The GI50 is 13.3 µM (inactive) with UACC-62; 19.8 µM (inactive) in the assay with DU-145; 26.1 µM (inactive) in the assay on OVCAR-3; 13.1 µM in the assay with HCT-15; 12.2 µM (inactive) with MCF7; 15.7 µM (inactive) with U-251. In addition, the GI50 in the assay on UACC-257 is 20.3 µM (inactive); in the assay on MOLT-4, 63 µM (inactive); with LOX IMVI, 16.3 µM (inactive); with HCC 2998 it was 15.2 µM (inactive); in the assay on NCI/ADR-RES, 18 µM (inactive); with RPMI-8226, 29.9 µM (inactive). Besides, the GI50 is 22.3 µM (inactive) in the assay with HOP-62 and 14.1 µM (inactive) in the assay on SK-MEL-2.
Turning to `Cc1cc2c(cc1C)[n+]([O-])c(C(=O)/C=C/c1ccccc1[N+](=O)[O-])c(C)[n+]2[O-]`, the GI50 was 71.4 µM (inactive) with SK-MEL-28; 30.3 µM (inactive) in the assay on SNB-19; > 100 µM (inactive) in the assay on SW-620; > 100 µM (inactive) in the assay on KM12; > 65.5 µM (inactive) in the assay with MDA-MB-231; > 100 µM (inactive) in the assay with MDA-MB-435. Further, the GI50 with UACC-62 was 40 µM (inactive); in the assay on DU-145 it was > 100 µM (inactive); in the assay with OVCAR-3, 50.7 µM (inactive); in the assay with HCT-15 it was 73.8 µM; in the assay with MCF7, > 46.5 µM (inactive); with U-251, 32.1 µM (inactive). For the same compound, the GI50 in the assay with UACC-257 was 75.9 µM (inactive); with MOLT-4, > 100 µM (inactive); with LOX IMVI, 71.1 µM (inactive); with HCC 2998, 71.6 µM (inactive); with NCI/ADR-RES, > 100 µM (inactive); in the assay on RPMI-8226, > 73.3 µM (inactive). Besides, the figures for the GI50 in the assay with HOP-62 and with SK-MEL-2 were 34 µM (inactive) and 41 µM (inactive), respectively.
Turning to `COc1ccc(Cl)cc1NC(=O)c1cccc([N+](=O)[O-])c1O`, the GI50 is 11.7 µM (inactive) with SK-MEL-28; 8.97 µM (inactive) in the assay with SNB-19; 22.7 µM (inactive) in the assay with SW-620; 19.5 µM (inactive) with KM12; 24.8 µM (inactive) in the assay on MDA-MB-231; 14.4 µM (inactive) with MDA-MB-435. Moreover, the GI50 with UACC-62 was 6.82 µM (inactive); in the assay on DU-145 it was 23.7 µM (inactive); with OVCAR-3, 5.19 µM (inactive); in the assay on HCT-15 it was 21.8 µM; with MCF7, 20.9 µM (inactive); in the assay on U-251, 11.9 µM (inactive). Moreover, the GI50 in the assay on UACC-257 was 15.2 µM (inactive); with MOLT-4, 16.8 µM (inactive); with LOX IMVI, 13.7 µM (inactive); in the assay on HCC 2998, 14 µM (inactive); in the assay with NCI/ADR-RES it was 10 µM (inactive); in the assay on RPMI-8226 it was 5.07 µM (inactive). In addition, the figures for the GI50 with HOP-62 and in the assay with SK-MEL-2 were 13.4 µM (inactive) and 4.17 µM (inactive), respectively.
For the compound `COC(=O)/C(=C/c1ccc(OC)cc1)c1cc(OC)c(OC)c(OC)c1`, the GI50 is 5.89 µM (inactive) in the assay on SK-MEL-28; 3.62 µM (inactive) with SNB-19; 0.643 µM (active) in the assay with SW-620; 0.521 µM (active) in the assay on KM12; 3.38 µM (inactive) in the assay on MDA-MB-231; 0.112 µM (active) in the assay on MDA-MB-435. Moreover, the GI50 in the assay with UACC-62 was 0.631 µM (active); with DU-145 it was 1.69 µM (inactive); in the assay on OVCAR-3, 0.527 µM (active); in the assay on HCT-15, 0.646 µM; in the assay on MCF7, 0.604 µM (active); in the assay with U-251 it was 2 µM (inactive). Further, the GI50 in the assay on UACC-257 was 7.83 µM (inactive); in the assay with MOLT-4 it was 1.44 µM (inactive); in the assay on LOX IMVI, 4.42 µM (inactive); in the assay on HCC 2998, 10.7 µM (inactive); in the assay with NCI/ADR-RES it was 0.514 µM (active); with RPMI-8226 it was 2.52 µM (inactive). Moreover, the GI50 in the assay on HOP-62 is 1.53 µM (inactive); with SK-MEL-2 it was 3.18 µM (inactive).
